The experiment deals with P388 leukemia ip, CD2F1 mice, survival T/C. Kind of experiment: NCI In Vivo Anticancer Drug Screen. Data for tumor model P388 Leukemia (intraperitoneal) in CD2F1 (CDF1) mice. The settings on record: endpoint: median survival time, higher = longer survival. The essentials:
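Mice carrying the transplanted tumor received test compound or vehicle. Survival was recorded in each group, and the value is the treated-group measurement divided by that of the vehicle-treated control group.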

The mark [1] stands for this setting: dose: 60.0 mg/kg/injection, schedule: Q01DX005 (ip), vehicle: saline with Tween-80.
The mark [2] stands for this setting: dose: 120.0 mg/kg/injection, schedule: Q01DX005 (ip), vehicle: saline with Tween-80.
Setting [3] is: dose: 240.0 mg/kg/injection, schedule: Q01DX005 (ip), vehicle: saline with Tween-80.
Setting [4] is: dose: 100.0 mg/kg/injection, schedule: Q04DX003 (ip), vehicle: saline.
[5] abbreviates: dose: 200.0 mg/kg/injection, schedule: Q04DX003 (ip), vehicle: saline.
Setting [6] is: dose: 400.0 mg/kg/injection, schedule: Q04DX003 (ip), vehicle: saline.
[7] abbreviates: dose: 6.25 mg/kg/injection, schedule: Q01DX009 (ip), vehicle: saline with Tween-80.
[8] abbreviates: dose: 12.5 mg/kg/injection, schedule: Q01DX009 (ip), vehicle: saline with Tween-80.
Setting [9] is: dose: 50.0 mg/kg/injection, schedule: Q01DX009 (ip), vehicle: saline with Tween-80.
The mark [10] stands for this setting: dose: 100.0 mg/kg/injection, schedule: Q01DX009 (ip), vehicle: saline with Tween-80.
The mark [11] stands for this setting: dose: 200.0 mg/kg/injection, schedule: Q01DX009 (ip), vehicle: saline with Tween-80.
Where [12] appears, read: dose: 50.0 mg/kg/injection, schedule: Q01DX005 (ip), vehicle: Klucel (hydroxypropylcellulose) (HPC).
[13] abbreviates: dose: 100.0 mg/kg/injection, schedule: Q01DX005 (ip), vehicle: Klucel (hydroxypropylcellulose) (HPC).
Where [14] appears, read: dose: 200.0 mg/kg/injection, schedule: Q01DX005 (ip), vehicle: Klucel (hydroxypropylcellulose) (HPC).

Results on 27 compounds are retold here after PubChem BioAssay AID330 (DTP/NCI, 2004).

Several values for one entry are separate records, joined by “and”; a condition that tells them apart may be missing. Equal values may be shown once. Toxic doses and inconclusive results are not listed.

On to `CN1C=C(C#N)CCC1Sc1ccc(Cl)cc1` (stereo not drawn), for which the T/C runs as follows: under setting [1], 105 % of control; under setting [2], 103 % of control; under setting [3], 104 % of control.

For the compound `CCc1ccc[n+](-c2nc3c([O-])n(C)c(=O)n(C)c-3n2)c1`, the T/C under setting [4] is 91 % of control, the T/C under setting [5] is 100 % of control and the T/C under setting [6] was 94 % of control.

As to `O=C(C(=O)c1cccc(C(=O)C(=O)c2ccccc2)c1)c1ccccc1`, the T/C runs as follows: under setting [1], 104 % of control; under setting [2], 96 % of control; under setting [3], 92 % of control.

`O=C1CC2CCC1CC2c1cnc[nH]1` (stereo not drawn): the T/C (dose: 25.0 mg/kg/injection, schedule: Q04DX002 (ip), vehicle: saline with Tween-80) is 93 % of control; the T/C (dose: 50.0 mg/kg/injection, schedule: Q04DX002 (ip), vehicle: saline with Tween-80) was 100 % of control; the T/C (dose: 100.0 mg/kg/injection, schedule: Q04DX002 (ip), vehicle: saline with Tween-80) was 102 % of control.

Regarding `COc1ccc(Cl)cc1NC(=O)Oc1ccncc1`, the T/C (dose: 0.78 mg/kg/injection, schedule: Q01DX009 (ip), vehicle: saline with Tween-80) is 94 % of control; the T/C (dose: 1.56 mg/kg/injection, schedule: Q01DX009 (ip), vehicle: saline with Tween-80) was 88 % of control; the T/C (dose: 3.12 mg/kg/injection, schedule: Q01DX009 (ip), vehicle: saline with Tween-80) was 87 % of control and 88 % of control; the T/C under setting [7] is 86 % of control; the T/C under setting [8] was 88 % of control; the T/C under setting [9] is 87 % of control. Moreover, the T/C under setting [10] is 101 % of control and the T/C under setting [11] is 94 % of control.

On to `COc1cccc(-c2c(C#N)c(=O)n(C)c3nncn23)c1`, for which the T/C is 97 % of control (dose: 100.0 mg/kg/injection, schedule: Q01DX001 (ip), vehicle: saline with Tween-80); 94 % of control (dose: 200.0 mg/kg/injection, schedule: Q01DX001 (ip), vehicle: saline with Tween-80); 91 % of control (dose: 400.0 mg/kg/injection, schedule: Q01DX001 (ip), vehicle: saline with Tween-80).

Consider `[SeH]c1ccccc1`, for which the T/C runs as follows: (dose: 7.5 mg/kg/injection, schedule: Q01DX009 (ip), vehicle: saline with Tween-80) 106 % of control; (dose: 15.0 mg/kg/injection, schedule: Q01DX009 (ip), vehicle: saline with Tween-80) 113 % of control; (dose: 30.0 mg/kg/injection, schedule: Q01DX009 (ip), vehicle: saline with Tween-80) 116 % of control.

Turning to `COc1ccc(C(=O)N=C(N)n2nc(C)cc2C)cc1`, the T/C is 90 % of control (dose: 100.0 mg/kg/injection, schedule: Q04DX003 (ip), vehicle: Klucel (hydroxypropylcellulose) (HPC)); 101 % of control (dose: 200.0 mg/kg/injection, schedule: Q04DX003 (ip), vehicle: Klucel (hydroxypropylcellulose) (HPC)); 94 % of control (dose: 400.0 mg/kg/injection, schedule: Q04DX003 (ip), vehicle: Klucel (hydroxypropylcellulose) (HPC)).

For the compound `O=c1[nH]nc(Sc2ccccc2)c2nncn12`, the T/C (dose: 50.0 mg/kg/injection, schedule: Q01DX005 (ip), vehicle: saline with Tween-80) is 100 % of control and the T/C (dose: 100.0 mg/kg/injection, schedule: Q01DX005 (ip), vehicle: saline with Tween-80) was 92 % of control.

Take `Cc1c(CCNC=O)ccc2c1[nH]c1ccccc12`: the T/C was 95 % of control under setting [12], 96 % of control under setting [13] and 100 % of control under setting [14].

Consider `Cn1c2nc(-[n+]3ccccc3)nc-2c([O-])n(C)c1=O`, for which the T/C is, setting by setting: under setting [4], 94 % of control; under setting [5], 100 % of control; under setting [6], 100 % of control.

Consider `Nc1nc(Cl)nc2c1ncn2C1OC(CO)C(O)C1O` (stereo not drawn), for which the T/C was 105 % of control (dose: 3.1 mg/kg/injection, schedule: Q01DX010 (ip), vehicle: carboxymethylcellulose (CMC)); 120 % of control (dose: 6.2 mg/kg/injection, schedule: Q01DX010 (ip), vehicle: carboxymethylcellulose (CMC)); 150 % of control (dose: 25.0 mg/kg/injection, schedule: Q01DX010 (ip), vehicle: carboxymethylcellulose (CMC)).

Take `COC12CCCC3(OCCO3)C1C(Cl)C2Cl` (stereo not drawn): the T/C by setting is: under setting [1], 98 % of control; under setting [2], 88 % of control.

Take `c1cncc(-c2n[nH]c3c2CCCc2ccccc2-3)c1`: the T/C is, setting by setting: (dose: 12.5 mg/kg/injection, schedule: Q01DX009 (ip), vehicle: other) 107 % of control; (dose: 25.0 mg/kg/injection, schedule: Q01DX009 (ip), vehicle: other) 100 % of control; (dose: 50.0 mg/kg/injection, schedule: Q01DX009 (ip), vehicle: other) 107 % of control; (dose: 100.0 mg/kg/injection, schedule: Q01DX009 (ip), vehicle: other) 96 % of control; (dose: 200.0 mg/kg/injection, schedule: Q01DX009 (ip), vehicle: other) 105 % of control.

As for `C#CC(C(O)c1ccccc1)N1CCOCC1` (stereo not drawn), the T/C runs as follows: under setting [4], 104 % of control; under setting [5], 102 % of control; under setting [6], 101 % of control.

Turning to `CC(=O)Nc1ccc(S(=O)(=O)N/N=C/c2cc([N+](=O)[O-])cc([N+](=O)[O-])c2O)cc1`, the T/C is 106 % of control under setting [1], 104 % of control under setting [2] and 104 % of control under setting [3].

For the compound `OC1(O)CCC1(O)OCCBr` (stereo not drawn), the T/C is 92 % of control under setting [1] and 108 % of control under setting [2].

As to `COc1ccc2c(n1)Sc1nc3ccccc3nc1N2`, the T/C was 100 % of control under setting [1], 100 % of control under setting [2] and 101 % of control under setting [3].

Regarding `CC(C)(C)NC(=O)c1cccc(C(N)=O)n1`, the T/C by setting is: under setting [1], 94 % of control; under setting [2], 93 % of control; under setting [3], 97 % of control.

Consider `COc1c(I)c2c(c([N+](=O)[O-])c1OC)C(=O)OC2C1c2c(cc3c(c2OC)OCO3)CCN1C` (stereo not drawn), for which the T/C (dose: 25.0 mg/kg/injection, schedule: Q01DX005 (ip), vehicle: Klucel (hydroxypropylcellulose) (HPC)) was 92 % of control; the T/C under setting [12] was 101 % of control; the T/C under setting [13] is 96 % of control; the T/C under setting [14] is 91 % of control.

Turning to `COCCCNC(=S)N/N=C/c1cc(Cl)cc(Cl)c1O`, the T/C reads like this: under setting [7], 92 % of control; under setting [8], 87 % of control; under setting [11], 93 % of control.

As for `N#Cc1ncc(C[P+](c2ccccc2)(c2ccccc2)c2ccccc2)nc1N`, the T/C by setting is: under setting [8], 91 % of control; (dose: 25.0 mg/kg/injection, schedule: Q01DX009 (ip), vehicle: saline with Tween-80) 94 % of control; under setting [9], 95 % of control.

Regarding `[Mn]=[Se]`, the T/C (dose: 7.5 mg/kg/injection, schedule: Q01DX005 (ip), vehicle: other) was 101 % of control; the T/C (dose: 15.0 mg/kg/injection, schedule: Q01DX005 (ip), vehicle: other) is 100 % of control and 103 % of control; the T/C (dose: 30.0 mg/kg/injection, schedule: Q01DX005 (ip), vehicle: other) was 103 % of control and 94 % of control; the T/C (dose: 60.0 mg/kg/injection, schedule: Q01DX005 (ip), vehicle: acid diluted with saline) is 110 % of control; the T/C (dose: 60.0 mg/kg/injection, schedule: Q01DX005 (ip), vehicle: other) was 100 % of control.

Consider `CC(C)(C)N1CC1C#N` (stereo not drawn), for which the T/C (dose: 3.13 mg/kg/injection, schedule: Q01DX009 (ip), vehicle: saline) was 111 % of control; the T/C (dose: 6.25 mg/kg/injection, schedule: Q01DX009 (ip), vehicle: saline) is 104 % of control; the T/C (dose: 12.5 mg/kg/injection, schedule: Q01DX009 (ip), vehicle: saline) is 101 % of control.

In the case of `CCOc1nc(C(=O)O)cc2ccsc12`, the T/C (dose: 100.0 mg/kg/injection, schedule: Q01DX001 (ip), vehicle: Klucel (hydroxypropylcellulose) (HPC)) was 90 % of control; the T/C (dose: 200.0 mg/kg/injection, schedule: Q01DX001 (ip), vehicle: Klucel (hydroxypropylcellulose) (HPC)) is 94 % of control; the T/C (dose: 400.0 mg/kg/injection, schedule: Q01DX001 (ip), vehicle: Klucel (hydroxypropylcellulose) (HPC)) is 96 % of control.

As for `COC(CN(Cc1cccs1)S(=O)(=O)c1ccc(C)cc1)OC`, the T/C under setting [12] is 94 % of control, the T/C under setting [13] is 94 % of control and the T/C under setting [14] is 99 % of control.

As to `O=C1NN=C2CCCCCCCCCCC12` (stereo not drawn), the T/C is, setting by setting: under setting [9], 96 % of control; under setting [10], 89 % of control; under setting [11], 89 % of control.
